Measurements from ChEMBL document CHEMBL5126666, “Cladoxanthones A and B, Xanthone-Derived Metabolites with a Spiro[cyclopentane-1,2'-[3,9a]ethanoxanthene]-2,4',9',11'-tetraone Skeleton from a Cladosporium sp” (J Nat Prod, 2022).

Key:
Format in all cases: functional, cell-based
[1] = Antiproliferative activity against mouse MB49 cells assessed as reduction in cell viability after 24 hrs by MTT assay; settings: MB49, 24 h
[2] = system: J82; assay: Antiproliferative activity against human J82 cells assessed as reduction in cell viability after 24 hrs by MTT assay; settings: J82, 24 h
[3] = system: 4T1; assay: Antiproliferative activity against mouse 4T1 cells assessed as reduction in cell viability after 24 hrs by MTT assay; settings: 4T1, 24 h
[4] = system: Huh-7; assay: Antiproliferative activity against human Huh-7 cells assessed as reduction in cell viability after 24 hrs by MTT assay; settings: Huh-7, 24 h

| IC50 [3] [µM] | IC50 [4] [µM] | SMILES | IC50 [1] [µM] | IC50 [2] [µM] |
| --- | --- | --- | --- | --- |
| 27.5 | 46.4 | CC1=CC(=O)[C@]2(O)C(=O)c3c(ccc(-c4ccc5c(c4O)C(=O)[C@@]46C[C@@]7(C(=O)CC[C@@H]7C)[C@@](C)(CC4=O)C(=O)[C@]6(C)O5)c3O)O[C@@]2(C)[C@H]1O | 41.7 | 24.7 |
| 38.7 | 24.3 | C[C@H]1CCC(=O)[C@@]12C[C@]13C(=O)C[C@@]2(C)C(=O)[C@]1(C)Oc1cccc(O)c1C3=O | 13.9 | 25 |
